Data set [1] deals with IL-6 cytokine output from THP-1s. Kind of data set: THP-1 AlphaLISA IL-6 cytokine assay. The data set is classed as cell-based, human. The settings on record: Homo sapiens; PMA-differentiated THP-1 cells, LPS 24 hr then Nigericin 1 hour. The method, boiled down:
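THP-1 cells, PMA-differentiated 72 h; 30 min compound pre-incubation; LPS 24 h; nigericin 1 h; 37 °C/5% CO2. Supernatants read by AlphaLISA kit. IC50 from % inhibition vs concentration, normalised to +LPS (high) and −LPS (low) controls.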
For orientation: Alpha assays give light when donor and acceptor beads are brought close together.

Data set [2] in a line: Mouse pharmacokinetic study, intravenous dosing. In kind it is in vivo. The following applies: 10 mg/kg i.v.; for concentration at 0.05 h / concentration at 0.133 h / concentration at 0.25 h / concentration at 0.5 h / concentration at 1 h / concentration at 2 h / concentration at 4 h / concentration at 6 h / concentration at 8 h: male, C57BL/6, mouse, iv, plasma, read-out: Parent compound concentration following intravenous administration. A digest of the protocol: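 Male C57BL/6 mice (6-8 weeks, fed ad libitum); IV tail-vein 10 mg/kg in 10% DMSO/25% HP-β-CD, sampled 3 min–8 h; oral gavage 100 mg/kg in 5% DMSO/0.5% HPMC+0.1% Tween 80, sampled 5 min–24 h. N=3/time point, semi-serial facial-vein bleeds into K2EDTA; plasma levels by LC-MS/MS.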

The nature of data set [3]: Mouse pharmacokinetic study, oral administration. In kind it is in vivo. The settings on record: for concentration at 0.083 h / concentration at 0.25 h / concentration at 0.5 h / concentration at 1 h / concentration at 2 h / concentration at 4 h / concentration at 6 h / concentration at 8 h / concentration at 24 h: male, C57BL/6, mouse, plasma, po, 100 mg/kg, male C57BL/6 mice, oral gavage 100 mg/kg; for concentration at 0.083 h: read-out: Parent compound concentrations following oral administration, Time 0.083 h; for concentration at 0.25 h: read-out: Parent compound concentrations following oral administration, Time 0.25 h; for concentration at 0.5 h: read-out: Parent compound concentrations following oral administration, Time 0.5 h; for concentration at 1 h: read-out: Parent compound concentrations following oral administration, Time 1 h; for concentration at 2 h: read-out: Parent compound concentrations following oral administration, Time 2 h; for concentration at 4 h: read-out: Parent compound concentrations following oral administration, Time 4 h; for concentration at 6 h: read-out: Parent compound concentrations following oral administration, Time 6 h; for concentration at 8 h: read-out: Parent compound concentrations following oral administration, Time 8 h; for concentration at 24 h: read-out: Parent compound concentrations following oral administration, Time 24 h. The procedure:
Pharmacokinetic studies were carried out in 6-8-week-old male C57BL/6 mice having free access to food and water. Intravenous dosing was conducted at 10 mg/kg (5 mL/kg; vehicle: 10% DMSO-90% (25% HP-13-CD in water)) via tail vein injection, with sampling at 3 min, 8 min, 15 min, 30 min, 1, 2, 4, 6 and 8 hours, i.e., 9 time points in total (N=3/time point), using semi-serial bleeding for plasma. Oral compound administration, via gavage, was carried out at 100 mg/kg (10 mL/kg; vehicle: 5% DMSO-95% (0.5% HPMC+0.1% Tween 80 in water)), with sampling at 5 min, 15 min, 30 min, 1, 2, 4, 6, 8 and 24 hours, i.e., 9 time points in total (N=3/time point), using semi-serial bleeding for plasma.
For both intravenous and oral routes, the mice were restrained manually at the designated time points, with ca. 110 μL of blood being taken into K2EDTA tubes via the facial vein. Blood samples were put on ice and centrifuged to obtain plasma samples from which the concentration at each time point was measured by LC-MS/MS.

Structures can show the parent of a compound that is named as a salt.

One may read the IC50 as the concentration that inhibits the measured activity by half. A higher IC50 goes with a need for much substance. Take `C=C(CC(=O)OCCCCCCCC)C(=O)OC1COC1` [Example 4, 4-octyl 1-(oxetan-3-yl) 2-methylenesuccinate]: half-maximal inhibition in data set [1] (IC50) required 3.6 µM.
Still for that read-out and setting: for `C=C(CC(=O)OCCCCCCCC)C(=O)OCCC#N` [Example 1, 1-(2-cyanoethyl) 4-octyl 2-methylenesuccinate] the value was 6 µM; for `C=C(CC(=O)OCCCCCCCC)C(=O)OCCC(F)(F)F` [Example 3, 4-octyl 1-(3,3,3-trifluoropropyl) 2-methylenesuccinate], 56.2 µM.
Same read-out and setting: for `C=C(CC(=O)OCCCCCCCC)C(=O)OCCN1C(=O)CCC1=O` [Example 9, 1-(2-(2,5-dioxopyrrolidin-1-yl)ethyl) 4-octyl 2-methylenesuccinate] the value was 2.2 µM.
With `C=C(CC(=O)O[C@H](CC)CCCCC)C(=O)OCC(=O)O` [Example 178, (R)-2-(2-methylene-4-(octan-3-yloxy)-4-oxobutanoyloxy)acetic acid], in data set [2], the concentration at 0.05 h was determined as 33400 ng/mL, the concentration at 0.133 h amounted to 15500 ng/mL, the concentration at 0.25 h stood at 5680 ng/mL and the concentration at 0.5 h stood at 2850 ng/mL. Also, in data set [2], the concentration at 1 h was found to be 594 ng/mL, the concentration at 2 h is 61 ng/mL, the concentration at 4 h was found to be 8.2 ng/mL and the concentration at 6 h was less than 4 ng/mL. Also, in data set [2], the concentration at 8 h was less than 4 ng/mL. Also, in data set [3], the concentration at 0.083 h was 67.1 µg/mL, the concentration at 0.25 h was 27100 ng/mL, the concentration at 0.5 h came to 27900 ng/mL and the concentration at 1 h is 11000 ng/mL. For the same compound, in data set [3], the concentration at 2 h amounted to 3660 ng/mL, the concentration at 4 h was determined as 1460 ng/mL, the concentration at 6 h stood at 2240 ng/mL and the concentration at 8 h came to 639 ng/mL. The concentration at 24 h in data set [3] was less than 4 ng/mL.
Turning to `C=C(CC(=O)OC)C(=O)OC` [dimethyl itaconate, reference compound], in data set [2], the concentration at 0.05 h is 874 ng/mL, the concentration at 0.133 h was less than 24 ng/mL, the concentration at 0.25 h is less than 24 ng/mL and the concentration at 0.5 h was less than 24 ng/mL. Also, in data set [2], the concentration at 1 h was less than 24 ng/mL, the concentration at 2 h is less than 24 ng/mL, the concentration at 4 h is less than 24 ng/mL and the concentration at 6 h is less than 24 ng/mL. In addition, in data set [2], the concentration at 8 h was less than 24 ng/mL. In data set [2] (mouse), the “Quantifiability in plasma following intravenous dosing” value is “only quantifiable at one timepoint”. Besides, the 50% inhibitory concentration (IC50) in data set [1] turned out to be 100 µM. Moreover, in data set [3], the concentration at 0.083 h was less than 0.024 µg/mL, the concentration at 0.25 h was less than 24 ng/mL, the concentration at 0.5 h is less than 24 ng/mL and the concentration at 1 h is less than 24 ng/mL. In data set [3], the concentration at 2 h is less than 24 ng/mL, the concentration at 4 h was less than 24 ng/mL, the concentration at 6 h was less than 24 ng/mL and the concentration at 8 h was less than 24 ng/mL. Besides, in data set [3], the concentration at 24 h is less than 24 ng/mL. For the same compound, the “Quantifiability in plasma following oral administration” value in data set [3] (mouse, 100 mg/kg oral) is “below the limit of quantification at all timepoints”.
As to `C=C(CC(=O)OCCCCCCCC)C(=O)OCCS(C)(=O)=O` [Example 2, 1-(2-(methylsulfonyl)ethyl) 4-octyl 2-methylenesuccinate], it took 2.9 µM to reach half-maximal inhibition in data set [1] (IC50). This lies in the single-digit micromolar range.
On the same count and under the same terms, for `COC(=O)/C=C/C(=O)OC` [dimethyl fumarate, reference compound] the value was 9.3 µM.
Take `C=C(CC(=O)OCCCOc1ccccc1)C(=O)OCCC(=O)O` [Example 86, 3-((2-methylene-4-oxo-4-(3-phenoxypropoxy)butanoyl)oxy)propanoic acid]: the half-inhibitory concentration (IC50) in data set [1] was 15.7 µM. In data set [3], the concentration at 0.25 h was 41 ng/mL, the concentration at 0.5 h stood at 943 ng/mL, the concentration at 1 h came to 686 ng/mL and the concentration at 2 h worked out at 149 ng/mL. Moreover, in data set [3], the concentration at 4 h worked out at 19 ng/mL, the concentration at 8 h was less than 3 ng/mL and the concentration at 24 h was less than 3 ng/mL.
